# Laboratory results as given in patent publication US20240050440A1, “THERAPEUTIC TARGETS AND AGENTS FOR THE TREATMENT OF TRIOSEPHOSPHATE ISOMERASE (TPI) DEFICIENCY” (University of Pittsburgh- Of The Commonwealth System of …, priority 2020, published 2024).
# Where a SMILES comes first, the peptide text is derived from it. The star is where a group is joined. Cbz = O=C(OCc1ccccc1)*
# What was measured:
# TPI^sugarkill = test: Isolation and visualization of poly-ubiquitinated TPI from MG132-fed flies; type: in vivo, Drosophila melanogaster; settings: flies fed 1 mg/mL MG132 for 24 hours at 25° C. or 29° C.; immunoprecipitation and Western blot
# Protocol: Conjugated anti-TPI resin was prepared with TPI antibody (FL249, Santa Cruz Biotechnology) and the Pierce co-immunoprecipitation kit. Homozygous TPI^sugarkill flies were fed 1 mg/mL MG132 (Sigma) on 10% sucrose for 24 hours at 25° C. or 29° C. Following incubation, flies were homogenized using a mechanical homogenizer in Pierce co-immunoprecipitation lysis buffer with Protease Inhibitor Mini-Tablets (Pierce), MG132 (0.1 mg/mL, Sigma) and NEM (1 μM, Sigma). Protein concentration was determined by BCA assay (Pierce). The lysates (2 mg) were incubated on a rotator overnight at 4° C. with 100 μl of the conjugated anti-TPI resin. The columns were washed three times with 200 μL of Pierce IP wash buffer with Protease Inhibitor Mini-Tablets (Pierce), MG132 (0.1 mg/mL) and 1 μM NEM. A bead only control provided by the Pierce IP kit served as a negative control. The samples were eluted into 2×SDS-PAGE sample buffer (130 mM Tris (pH 6.8), 4% SDS, 4% beta-mercaptoethanol, 20% glycerol, 0.1% bromophenol blue) with Protease Inhibitor Mini-Tablets (Pierce), MG132 (0.1 mg/mL, Sigma) and NEM (1 μM, Sigma). Western blots were conducted as described above with the exception that the blots were boiled in distilled water for 30 minutes prior to blocking. The antibody used for detection of ubiquitin was anti-ubiquitin (1:1000, 6C1 mouse Santa Cruz Biotechnology). […]
# TPI^E105D-GFP = test: High-content analysis in U2OS TPI^E105D-GFP cells; type: cell-based, human; settings: 48 hours
# Protocol: U2OS osteosarcoma cells (ATCC HTB-96) engineered to express the mutant (E105D) TN-GFP protein were generated using the identical method described above for HEK cells and maintained in McCoy's 5A medium (ThermoFisher 16600082).
# (§1) FB303 cells were plated (1000/well) in a 384 well collagen-coated microplate. Cells were treated with vehicle (DMSO) or ten-point, two-fold gradients of test compounds for 48 hours in quadruplicates. Cells were fixed with 4% formaldehyde and immunostained with an anti-TPI antibody (Santa Cruz sc-30145) followed by a Cy3-conjugated goat anti-rabbit secondary (Jackson Immunoresearch). Nuclei were counterstained with Hoechst 33342 Images were acquired on an OPERA Phenix high-content imager (20× air objective, widefield, 4 fields/well) and analyzed for total cellular GFP intensity (HEK and U2OS) or total cellular Cy3 intensity (FB303) using Harmony 5.0 image analysis software (Perkin Elmer).
# [1] = tested on: TPI^E105D-GFP fusion protein; test: HEK293 TPI^E105D-GFP high content assay (GFP intensity per cell); type: cell-based, human; settings: for repeat of hit activity in every condition: NIH Clinical Collection, 10 μM and 1 μM, 24 hours and 48 hours; for TPI^E105D-GFP fluorescence (in words): prescreen of putative protein stabilizing compounds, 48 hours; for hit call in LOPAC screen: 10 μM, 48 hour condition
# Protocol: HEK293 cells expressing a mutant (E105D) TPI-GFP fusion protein were created using the Flp-In System (Invitrogen, Catalog #K6010-01 and K6010-02) following the manufacturer's protocol. Briefly, a host cell line expressing the transfected Flp-In target site vector, pFRT/lacZeo, was obtained following zeocin resistance selection. TPI^E105D-GFP fusion construct was cloned into the pcDNA 5/FRT expression vector. Co-transfection of 0.1 μg of the pcDNA 5/FRT construct (390 ng/μL) and 0.9 μg of the Flp recombinase expression vector (pOG44, 127 ng/μL) into the Flp-In host cell line was performed with 3.75 μL Lipofectamine 2000 reagent (Invitrogen). A hygromycin dose response was performed to determine the minimum concentration of hygromycin B required to kill untransfected host cells. […] Expression of the TPI^E105D-GFP fusion protein was verified via Western blot. The cells were cultured using standard methods (37° C., 5% CO2) in normal media (DMEM with 10% serum, 100 U penicillin/100 μg streptomycin/ml (Lonza)). To document subcellular localization of mutant GFP-tagged TPI, nuclei were stained with Hoechst 33342 and imaged on an ImageXpress Ultra confocal high content reader in the UV and GFP channel, respectively. A z-series of images (60× objective, 90 planes, 0.3 μm z-steps) was acquired in both channels, and the color combined stack subjected to 3D reconstruction in MetaXpress. A single slice of the reconstructed image was chosen to illustrate the phenotype of mutant TPI-GFP expression.
# HEK293 TPI^E105D-GFP cells were plated (50,000 cells/well in collagen-coated 96-well thin-bottom microplates and allowed to attach overhight. Cells were treated with four point, two-fold gradients of 5× treatment solutions of test agents (6 replicates per condition). The final concentration of vehicle was 0.2%. After 48 hours in culture, cells were preincubated with propidium iodide (PI) for 30 minutes and imaged live in the GFP and Texas Red channels on an ImageXpress Ultra high content reader (Molecular Devices) using a 20× objective Images were analyzed with the multiwavelength cell scoring application using GFP to define and enumerate cells. The integrated GFP intensity per cell was used to quantify mutant TPI expression; the number of cells was used as a proxy for growth inhibition and/or cell loss; and the percentage of cells that exceeded a threshold for PI based on vehicle-treated controls was used to measure acute toxicity (necrosis).
# Assay ready daughter plates of the NIH Clinical Collection containing 2 μL of a 1 mM DMSO stock were reconstituted in DMEM (60 μL) to yield a 30 μM intermediate treatment concentration. 60 μl of DMSO (3%) was added to columns 1 and 24, and 60 μL of 600 nM luminespib was added to columns 2 and 23 to serve as negative and positive controls, respectively. Aliquots (15 μl) were transferred directly to cells in 384 well plates using an Agilent Bravo liquid handling robot (final concentration in assay, 10 μM). For the 1 μM condition, an aliquot of the 30 μM treatment solution was diluted 1:10 and controls added as above. Aliquots (15 μl) were transferred to cells to yield a […] final concentration. Plates were centrifuged for 30 seconds at 200×g and incubated at 37° C. After 24 hours, plates were imaged live in the GFP channel and returned to the incubator; after 48 hours cells were stained with PI, imaged live in the GFP and PI channels, and analyzed as described above. The LOPAC library was screened using the same procedure except that only the 10 μM, 48 hour condition was used.
# A pilot library screen was performed using the NIH Clinical Collection in the HEK TPI^E105D-GFP cell line. The NIH Clinical Collection maintained at the UPDDI contains 446 FDA approved drugs and small molecules that have a history of use in human clinical trials. The collections were assembled through the Molecular Libraries and Imaging Initiative as part of its mission to enable the use of compound screens in biomedical research. […]
# TPI = test: High-content analysis of TPI levels in patient fibroblasts by immunocytochemistry; type: cell-based, human; settings: 48 hours
# Protocol: as §1
# [2] = Luo et al. 2015; said to correlate with concentrations needed to increase TPI^E105D-GFP in HEK cells; cited from earlier work
# [3] = tested on: TPI^E105D-GFP fusion protein; test: HEK293 TPI^E105D-GFP high content assay (GFP intensity per cell); type: cell-based, human; settings: fresh repurchased samples, ten-point twofold dose-response
smiles,measurement,setting,value
CC(C)C[C@@H](C=O)NC(=O)[C@H](CC(C)C)NC(=O)[C@H](CC(C)C)NC(=O)OCc1ccccc1 [MG132] (Cbz-Leu-Leu-Leu-aldehyde),polyubiquitinated TPI^sugarkill signal,TPI^sugarkill,accumulation of polyubiquitinated signal
"C[C@H]1[C@H](OC(=O)CCC(=O)O)O[C@@H]2O[C@@]3(C)CC[C@H]4[C@H](C)CC[C@@H]1[C@@]24OO3 [artesunate, 4-oxo-4-[[(1R,4S,5R,8S,9R,10S,12R,13R)-1,5,9-trimethyl-11,14,15,16-tetraoxatetracyclo[10.3.1.0^4,13.0^8,13]hexadecan-10-yl]oxy]butanoic acid]","dose-response confirmation of activity, total GFP levels per cell",TPI^E105D-GFP,confirmed activity
same,repeat of hit activity in every condition,[1],repeated in every condition
same,"dose-response confirmation of activity, total anti-TPI fluorescence",TPI,confirmed activity
CC(C)C[C@H](NC(=O)[C@H](Cc1ccccc1)NC(=O)c1cnccn1)B(O)O [bortezomib],TPI^E105D-GFP fluorescence (in words),[1],significant increase
COc1ccccc1OCCNCC(O)COc1cccc2[nH]c3ccccc3c12 (stereo not shown) [carvedilol],repeat of hit activity in every condition,[1],repeated in every condition
C[C@@H]1C[C@@H]([C@H](O)CC2CC(=O)NC(=O)C2)C(=O)[C@@H](C)C1 [cycloheximide],TPI^E105D-GFP fluorescence (in words),[1],significant increase
O=C(O)C[C@H](O)C[C@H](O)/C=C/c1c(C2CC2)nc2ccccc2c1-c1ccc(F)cc1 [itavastatin],peak plasma levels in humans,[2],0.55 µM
same,repeat of hit activity in every condition,[1],repeated in every condition
same,concentration dependence of TPI^E105D-GFP increase,[3],concentration-dependent increases
CC[C@H](C)C(=O)O[C@H]1CCC=C2C=C[C@H](C)[C@H](CC[C@@H]3C[C@@H](O)CC(=O)O3)[C@H]21 [mevastatin],hit call in LOPAC screen,[1],positive hits
Cc1[nH]c(=O)c(C#N)cc1-c1ccncc1 [milrinone],repeat of hit activity in every condition,[1],repeated in every condition
"Oc1ccc(/C=C/c2cc(O)cc(O)c2)cc1 [resveratrol, 3,5,4′-trihydroxy-trans-stilbene]","dose-response confirmation of activity, total GFP levels per cell",TPI^E105D-GFP,confirmed activity
same,hit call in LOPAC screen,[1],positive hits
same,concentration dependence of TPI^E105D-GFP increase,[3],concentration-dependent increases
same,"dose-response confirmation of activity, total anti-TPI fluorescence",TPI,confirmed activity
